Assay results: the NIST ThermoML archive (doi:10.1021/je800658v)
Numbers after ± are expanded uncertainties.

Experiment: activity coefficient (dimensionless); of the first substance listed, at infinite dilution; xn = mol fraction of the nth substance listed
Details: 303.35 K; Liquid; Chromatography; x1 = 0

activity coefficient | SMILES
133 ± 9.1 | CCCCCC [hexane] + CCCCn1cc[n+](C)c1.F[B-](F)(F)F

Same assay, conditions: 303.35 K; Liquid; inverse gas chromatography; x1 = 0

SMILES | activity coefficient
ClC(Cl)(Cl)Cl [tetrachloromethane] + CCCCn1cc[n+](C)c1.F[B-](F)(F)F | 5.53 ± 0.33
CCC(C)=O [butanone] + CCCCn1cc[n+](C)c1.F[B-](F)(F)F | 1.5 ± 0.09
Cc1cccc(C)c1 [1,3-dimethylbenzene] + CCCCn1cc[n+](C)c1.F[B-](F)(F)F | 7.81 ± 0.47
c1ccccc1 [benzene] + CCCCn1cc[n+](C)c1.F[B-](F)(F)F | 2.2 ± 0.13
CCOCC [diethyl ether] + CCCCn1cc[n+](C)c1.F[B-](F)(F)F | 10.2 ± 0.61
C[N+](=O)[O-] [nitromethane] + CCCCn1cc[n+](C)c1.F[B-](F)(F)F | 0.59 ± 0.04
C1COCCO1 [1,4-dioxane] + CCCCn1cc[n+](C)c1.F[B-](F)(F)F | 1.26 ± 0.08
CC1CCCCC1 [methylcyclohexane] + CCCCn1cc[n+](C)c1.F[B-](F)(F)F | 98.3 ± 5.9
CC(C)CO [2-methyl-1-propanol] + CCCCn1cc[n+](C)c1.F[B-](F)(F)F | 4.17 ± 0.25
CCC[N+](=O)[O-] [1-nitropropane] + CCCCn1cc[n+](C)c1.F[B-](F)(F)F | 1.54 ± 0.09
Cc1ccc(C)cc1 [1,4-dimethylbenzene] + CCCCn1cc[n+](C)c1.F[B-](F)(F)F | 7.36 ± 0.44
C=O [methanal] + CCCCn1cc[n+](C)c1.F[B-](F)(F)F | 0.22 ± 0.01
CC(C)O [propan-2-ol] + CCCCn1cc[n+](C)c1.F[B-](F)(F)F | 3.2 ± 0.19
Cc1ccccc1 [toluene] + CCCCn1cc[n+](C)c1.F[B-](F)(F)F | 4.37 ± 0.26
C1CCCCC1 [cyclohexane] + CCCCn1cc[n+](C)c1.F[B-](F)(F)F | 62.5 ± 3.8
Cc1ccccc1C [1,2-dimethylbenzene] + CCCCn1cc[n+](C)c1.F[B-](F)(F)F | 6.53 ± 0.39
c1ccncc1 [pyridine] + CCCCn1cc[n+](C)c1.F[B-](F)(F)F | 1 ± 0.06
C1CCCCCC1 [cycloheptane] + CCCCn1cc[n+](C)c1.F[B-](F)(F)F | 78.7 ± 4.7
c1ccsc1 [thiophene] + CCCCn1cc[n+](C)c1.F[B-](F)(F)F | 1.56 ± 0.09

The next lines start with the values.

activity coefficient | SMILES
4.74 ± 0.29 | CCCCO [butan-1-ol] + CCCCn1cc[n+](C)c1.F[B-](F)(F)F
425 ± 26 | CCCCCCCC [octane] + CCCCn1cc[n+](C)c1.F[B-](F)(F)F
321 ± 19 | CC(C)CC(C)(C)C [2,2,4-trimethylpentane] + CCCCn1cc[n+](C)c1.F[B-](F)(F)F
1.38 ± 0.08 | CCC=O [propanal] + CCCCn1cc[n+](C)c1.F[B-](F)(F)F
2.63 ± 0.16 | CCC(=O)CC [pentan-3-one] + CCCCn1cc[n+](C)c1.F[B-](F)(F)F
2.15 ± 0.13 | CCO [ethanol] + CCCCn1cc[n+](C)c1.F[B-](F)(F)F
2.6 ± 0.16 | CCCC(C)=O [pentan-2-one] + CCCCn1cc[n+](C)c1.F[B-](F)(F)F
30.7 ± 1.8 | CC(C)OC(C)C [diisopropyl ether] + CCCCn1cc[n+](C)c1.F[B-](F)(F)F
8.29 ± 0.5 | C#CCCCC [1-hexyne] + CCCCn1cc[n+](C)c1.F[B-](F)(F)F
956 ± 57 | CCCCCCCCC [nonane] + CCCCn1cc[n+](C)c1.F[B-](F)(F)F
1.04 ± 0.06 | ClC(Cl)Cl [trichloromethane] + CCCCn1cc[n+](C)c1.F[B-](F)(F)F
62.2 ± 3.7 | CC1CCCC1 [methylcyclopentane] + CCCCn1cc[n+](C)c1.F[B-](F)(F)F
13.2 ± 0.79 | C#CCCCCC [1-heptyne] + CCCCn1cc[n+](C)c1.F[B-](F)(F)F
48 ± 2.9 | C=CCCCC [hex-1-ene] + CCCCn1cc[n+](C)c1.F[B-](F)(F)F
0.69 ± 0.04 | ClCCl [dichloromethane] + CCCCn1cc[n+](C)c1.F[B-](F)(F)F
7.25 ± 0.44 | CCc1ccccc1 [ethylbenzene] + CCCCn1cc[n+](C)c1.F[B-](F)(F)F
3.12 ± 0.19 | CCCO [propan-1-ol] + CCCCn1cc[n+](C)c1.F[B-](F)(F)F
0.36 ± 0.02 | OCC(F)(F)F [2,2,2-trifluoroethanol] + CCCCn1cc[n+](C)c1.F[B-](F)(F)F
126 ± 7.6 | CCC(C)CC [3-methylpentane] + CCCCn1cc[n+](C)c1.F[B-](F)(F)F
2.19 ± 0.13 | CCCC=O [butanal] + CCCCn1cc[n+](C)c1.F[B-](F)(F)F
1.22 ± 0.07 | CO [methanol] + CCCCn1cc[n+](C)c1.F[B-](F)(F)F
259 ± 16 | CCCCCCC [heptane] + CCCCn1cc[n+](C)c1.F[B-](F)(F)F
0.65 ± 0.04 | CC#N [acetonitrile] + CCCCn1cc[n+](C)c1.F[B-](F)(F)F
9.44 ± 0.57 | CCN(CC)CC [triethylamine] + CCCCn1cc[n+](C)c1.F[B-](F)(F)F

Same assay, conditions: 312.55 K; Liquid; Chromatography; x1 = 0

activity coefficient | SMILES
130 ± 9 | CCCCCC [hexane] + CCCCn1cc[n+](C)c1.F[B-](F)(F)F

Same assay, conditions: 312.55 K; Liquid; inverse gas chromatography; x1 = 0

SMILES | activity coefficient
ClC(Cl)(Cl)Cl [tetrachloromethane] + CCCCn1cc[n+](C)c1.F[B-](F)(F)F | 5.44 ± 0.33
CCC(C)=O [butanone] + CCCCn1cc[n+](C)c1.F[B-](F)(F)F | 1.48 ± 0.09
Cc1cccc(C)c1 [1,3-dimethylbenzene] + CCCCn1cc[n+](C)c1.F[B-](F)(F)F | 7.4 ± 0.44
c1ccccc1 [benzene] + CCCCn1cc[n+](C)c1.F[B-](F)(F)F | 2.17 ± 0.13
CCOCC [diethyl ether] + CCCCn1cc[n+](C)c1.F[B-](F)(F)F | 9.39 ± 0.56
C[N+](=O)[O-] [nitromethane] + CCCCn1cc[n+](C)c1.F[B-](F)(F)F | 0.56 ± 0.03
C1COCCO1 [1,4-dioxane] + CCCCn1cc[n+](C)c1.F[B-](F)(F)F | 1.24 ± 0.07
CC1CCCCC1 [methylcyclohexane] + CCCCn1cc[n+](C)c1.F[B-](F)(F)F | 82.7 ± 5
CC(C)CO [2-methyl-1-propanol] + CCCCn1cc[n+](C)c1.F[B-](F)(F)F | 3.99 ± 0.24
CCC[N+](=O)[O-] [1-nitropropane] + CCCCn1cc[n+](C)c1.F[B-](F)(F)F | 1.46 ± 0.09
Cc1ccc(C)cc1 [1,4-dimethylbenzene] + CCCCn1cc[n+](C)c1.F[B-](F)(F)F | 6.68 ± 0.4
C=O [methanal] + CCCCn1cc[n+](C)c1.F[B-](F)(F)F | 0.23 ± 0.01
CC(C)O [propan-2-ol] + CCCCn1cc[n+](C)c1.F[B-](F)(F)F | 2.76 ± 0.17
Cc1ccccc1 [toluene] + CCCCn1cc[n+](C)c1.F[B-](F)(F)F | 3.96 ± 0.24
C1CCCCC1 [cyclohexane] + CCCCn1cc[n+](C)c1.F[B-](F)(F)F | 48.4 ± 2.9
Cc1ccccc1C [1,2-dimethylbenzene] + CCCCn1cc[n+](C)c1.F[B-](F)(F)F | 5.55 ± 0.33
c1ccncc1 [pyridine] + CCCCn1cc[n+](C)c1.F[B-](F)(F)F | 0.99 ± 0.06
C1CCCCCC1 [cycloheptane] + CCCCn1cc[n+](C)c1.F[B-](F)(F)F | 98.2 ± 5.9
c1ccsc1 [thiophene] + CCCCn1cc[n+](C)c1.F[B-](F)(F)F | 1.52 ± 0.09

Continued, values first:

activity coefficient | SMILES
3.82 ± 0.23 | CCCCO [butan-1-ol] + CCCCn1cc[n+](C)c1.F[B-](F)(F)F
368 ± 22 | CCCCCCCC [octane] + CCCCn1cc[n+](C)c1.F[B-](F)(F)F
231 ± 14 | CC(C)CC(C)(C)C [2,2,4-trimethylpentane] + CCCCn1cc[n+](C)c1.F[B-](F)(F)F
1.33 ± 0.08 | CCC=O [propanal] + CCCCn1cc[n+](C)c1.F[B-](F)(F)F
2.57 ± 0.15 | CCC(=O)CC [pentan-3-one] + CCCCn1cc[n+](C)c1.F[B-](F)(F)F
1.91 ± 0.11 | CCO [ethanol] + CCCCn1cc[n+](C)c1.F[B-](F)(F)F
2.6 ± 0.16 | CCCC(C)=O [pentan-2-one] + CCCCn1cc[n+](C)c1.F[B-](F)(F)F
33.5 ± 2 | CC(C)OC(C)C [diisopropyl ether] + CCCCn1cc[n+](C)c1.F[B-](F)(F)F
7.53 ± 0.45 | C#CCCCC [1-hexyne] + CCCCn1cc[n+](C)c1.F[B-](F)(F)F
793 ± 48 | CCCCCCCCC [nonane] + CCCCn1cc[n+](C)c1.F[B-](F)(F)F
1.04 ± 0.06 | ClC(Cl)Cl [trichloromethane] + CCCCn1cc[n+](C)c1.F[B-](F)(F)F
53.5 ± 3.2 | CC1CCCC1 [methylcyclopentane] + CCCCn1cc[n+](C)c1.F[B-](F)(F)F
12.5 ± 0.75 | C#CCCCCC [1-heptyne] + CCCCn1cc[n+](C)c1.F[B-](F)(F)F
39.3 ± 2.4 | C=CCCCC [hex-1-ene] + CCCCn1cc[n+](C)c1.F[B-](F)(F)F
0.72 ± 0.04 | ClCCl [dichloromethane] + CCCCn1cc[n+](C)c1.F[B-](F)(F)F
6.73 ± 0.4 | CCc1ccccc1 [ethylbenzene] + CCCCn1cc[n+](C)c1.F[B-](F)(F)F
2.7 ± 0.16 | CCCO [propan-1-ol] + CCCCn1cc[n+](C)c1.F[B-](F)(F)F
0.33 ± 0.02 | OCC(F)(F)F [2,2,2-trifluoroethanol] + CCCCn1cc[n+](C)c1.F[B-](F)(F)F
94.3 ± 5.7 | CCC(C)CC [3-methylpentane] + CCCCn1cc[n+](C)c1.F[B-](F)(F)F
2.13 ± 0.13 | CCCC=O [butanal] + CCCCn1cc[n+](C)c1.F[B-](F)(F)F
1.22 ± 0.07 | CO [methanol] + CCCCn1cc[n+](C)c1.F[B-](F)(F)F
250 ± 15 | CCCCCCC [heptane] + CCCCn1cc[n+](C)c1.F[B-](F)(F)F
0.63 ± 0.04 | CC#N [acetonitrile] + CCCCn1cc[n+](C)c1.F[B-](F)(F)F
8.9 ± 0.6 | CCN(CC)CC [triethylamine] + CCCCn1cc[n+](C)c1.F[B-](F)(F)F
